Test results taken from BigSolDB 2.1.

CN1c2ccccc2C(=O)N2CCc3c([nH]c4ccccc34)[C@H]21
solubility (mole fraction)
Conditions	283.15 K	288.15 K	293.15 K	298.15 K	303.15 K	308.15 K	313.15 K	318.15 K	323.15 K
in acetone	0.000192	0.000226	0.000267	0.000315	0.000364	0.000426	0.000491	0.000571	0.000651
in ethanol	5.94e-05	7.31e-05	8.95e-05	0.00011	0.000132	0.000157	0.000186	0.000222	0.000263
in isopropanol	6.79e-05	8.16e-05	9.91e-05	0.000121	0.000142	0.00017	0.0002	0.000237	0.000276
in methanol	3.43e-05	4.34e-05	5.4e-05	6.72e-05	8.31e-05	0.000102	0.000124	0.000149	0.000182
